Columns and labels:
[1] = molecular target: HA H1 A/California/07/09 (Influenza A virus (A/California/07/2009(H1N1)), UniProt C3W5X2); experiment: biochemical; conditions: Competition binding (AlphaLISA), pIC50 H1 A/California/07/09
[2] = molecular target: HA H1 A/New Caledonia/20/99 (Influenza A virus (A/New Caledonia/20/1999(H1N1)), UniProt Q6WG00); experiment: biochemical; conditions: Competition binding (AlphaLISA), pIC50 H1 A/New Caledonia/20/99
[3] = molecular target: HA H5 A/Vietnam/1203/04 (Influenza A virus (A/Vietnam/1203/2004(H5N1)), UniProt Q5EP31); experiment: biochemical; conditions: Competition binding (AlphaLISA), pIC50 H5 A/Vietnam/1203/04
[4] = tested on: H1N1 A/California/07/09; experiment: microbe, parasite or virus in culture; format: cell-based, influenza A virus; conditions: Influenza A virus, H1N1, MDCK, 96 h, read-out: Virus neutralization assay (VNA), pEC50 H1N1 A/California/07/09 (converted)
[5] = tested on: H1N1 A/New Caledonia/20/99; experiment: microbe, parasite or virus in culture; format: cell-based, influenza A virus; conditions: Influenza A virus, H1N1, MDCK, 96 h, read-out: Virus neutralization assay (VNA), pEC50 H1N1 A/New Caledonia/20/99 (converted)
[6] = tested on: H5N1 A/Vietnam/1203/04; experiment: microbe, parasite or virus in culture; format: cell-based, influenza A virus; conditions: Influenza A virus, H5N1, MDCK, 96 h, read-out: Virus neutralization assay (VNA), pEC50 H5N1 A/Vietnam/1203/04, MDCK cells, 96 h, CPE by ATPlite (converted); average of repeats
[7] = in vitro; conditions: dog, Cytotoxicity (pCC50) MDCK

SMILES | IC50 [1] | IC50 [2] | IC50 [3] | EC50 [4] | EC50 [5] | EC50 [6] | CC50 [7]
COC(=O)C(c1ccccc1)N1CCN(C(=O)c2cccc(-c3nc4cc(OC5CC5)ccc4o3)c2)CC1 (centres unmarked) [Example 1, Methyl 2-(4-(3-(5-cyclopropoxybenzo[d]oxazol-2-yl)benzoyl)piperazin-1-yl)-2-phenylacetate] | 1.26 nM | 0.631 nM | 63.1 nM | 2.51 nM | 2.51 nM | 200 nM | > 50100 nM
CC(=O)Nc1ccc2oc(-c3ccnc(C(=O)N4CCN([C@H](c5ccccc5)c5n[nH]c(C)n5)CC4)c3)nc2c1 [Example 2] | 7.94 nM | 5.01 nM | 158 nM | 10 nM | 2.51 nM | 1000 nM | > 50100 nM
COc1nnc([C@@H](c2ccccc2)N2CCN(C(=O)c3cc(-c4nc5cc(OC(F)(F)F)ccc5o4)ccn3)CC2)o1 [Example 4] | 12.6 nM | 7.94 nM | 100 nM | 100 nM | 79.4 nM | 1260 nM | > 50100 nM
CC(=O)Nc1ccc2oc(-c3ccnc(C(=O)N4CCN(C(c5ccccc5)c5n[nH]c(C)n5)CC4)c3)nc2c1 (centres unmarked) [Example 5] | 25.1 nM | 15.8 nM | 501 nM | 15.8 nM | 6.31 nM | 1260 nM | > 50100 nM
CC(=O)Nc1ccc2oc(-c3cccc(C(=O)N4CCN(C(c5ccccc5)c5n[nH]c(C)n5)CC4)c3)nc2c1 (centres unmarked) [Example 6] | 20 nM | 10 nM | 501 nM | 20 nM | 6.31 nM | 12600 nM | > 50100 nM
COC(=O)C(c1ccccc1)N1CCN(C(=O)c2cccc(-c3nc4cc(NC(C)=O)ccc4o3)c2)CC1 (centres unmarked) [Example 7] | 6.31 nM | 3.16 nM | 158 nM | 25.1 nM | 25.1 nM | 1580 nM | 31600 nM
COC(=O)[C@@H](c1ccccc1)N1CCN(C(=O)c2cccc(-c3nc4cc(OC)ccc4o3)c2)CC1 [Example 8] | 6.31 nM | 3.98 nM | 200 nM | 39.8 nM | 31.6 nM | 1260 nM | > 50100 nM
CNc1ccc2oc(-c3cccc(C(=O)N4CCN(C(C(=O)OC)c5ccccc5)CC4)c3)nc2c1 (centres unmarked) [Example 9] | 6.31 nM | 3.98 nM | 251 nM | 63.1 nM | 39.8 nM | 1580 nM | 10000 nM
COC(=O)C(c1ccccc1)N1CCN(C(=O)c2cccc(-c3nc4cc(N)ccc4o3)c2)CC1 (centres unmarked) [Example 10] | 25.1 nM | 15.8 nM | 794 nM | 79.4 nM | 50.1 nM | 2510 nM | 25100 nM
COC(=O)C(c1ccccc1)N1CCN(C(=O)c2cccc(-c3nc4cc(N(C)C)ccc4o3)c2)CC1 (centres unmarked) [Example 11] | 7.94 nM | 6.31 nM | 316 nM | 79.4 nM | 50.1 nM | 1260 nM | 3980 nM
Cc1nnc([C@@H](c2ccccc2)N2CCN(C(=O)c3cc(-c4nc5cc(OC(F)(F)F)ccc5o4)ccn3)CC2)o1 [Example 12] | 6.31 nM | 7.94 nM | 158 nM | 39.8 nM | 39.8 nM | 1260 nM | 15800 nM
COC(=O)C(c1ccccc1)N1CCN(C(=O)c2cccc(-c3nc4cc(OC)ccc4o3)c2)CC1 (centres unmarked) [Example 13] | 7.94 nM | 6.31 nM | 501 nM | 79.4 nM | 50.1 nM | 3160 nM | 50100 nM
COC(=O)C(c1ccccc1)N1CCN(C(=O)c2cc(-c3nc4ccc(OC)cc4s3)ccn2)CC1 (centres unmarked) [Example 14] | 20 nM | 10 nM | 126 nM | 126 nM | 63.1 nM | 1000 nM | 15800 nM
CC(=O)Nc1ccc2oc(-c3ccnc(C(=O)N4CCN([C@H](c5ccccc5)c5nnc(C)o5)CC4)c3)nc2c1 [Example 15] | 3.16 nM | 6.31 nM | 158 nM | 158 nM | 39.8 nM | 7940 nM | > 50100 nM
COC(=O)C(c1ccccc1)N1CCN(C(=O)c2cc(-c3nc4cc(C(F)(F)F)ccc4o3)ccn2)CC1 (centres unmarked) [Example 16] | 15.8 nM | 15.8 nM | 398 nM | 79.4 nM | 79.4 nM | 3160 nM | –
Cc1nnc([C@@H](c2ccccc2)N2CCN(C(=O)c3cc(-c4nc5cc(C(F)(F)F)ccc5o4)ccn3)CC2)o1 [Example 17] | 15.8 nM | 31.6 nM | 631 nM | 126 nM | 200 nM | 3980 nM | 7940 nM
Cc1coc(C(c2ccccc2)N2CCN(C(=O)c3cc(-c4nc5cc(OC(F)(F)F)ccc5o4)ccn3)CC2)n1 (centres unmarked) [Example 18] | 39.8 nM | 20 nM | 398 nM | 200 nM | 79.4 nM | 20000 nM | > 50100 nM
Cc1cnc(C(c2ccccc2)N2CCN(C(=O)c3cc(-c4nc5cc(OC(F)(F)F)ccc5o4)ccn3)CC2)o1 (centres unmarked) [Example 20] | 12.6 nM | 20 nM | 501 nM | 79.4 nM | 100 nM | 7940 nM | 25100 nM
Cc1nnc(C(c2ccccc2)N2CCN(C(=O)c3cc(-c4nc5ccccc5s4)ccc3F)CC2)o1 (centres unmarked) [Example 48] | 251 nM | 200 nM | 12600 nM | 631 nM | 316 nM | > 50100 nM | –
Cc1nnc(C(c2ccccc2)N2CCN(C(=O)c3cc(-c4nc5ccccc5o4)ccc3F)CC2)o1 (centres unmarked) [Example 52] | 200 nM | 200 nM | 20000 nM | 631 nM | 398 nM | > 50100 nM | –
Cc1nnc([C@@H](c2ccccc2)N2CCN(C(=O)[C@H]3CCCN(c4nc5cc(C(F)(F)F)ccc5o4)C3)CC2)o1 [Example 96] | 200 nM | 316 nM | 15800 nM | 794 nM | 1000 nM | 50100 nM | –
Cc1nnc(C(c2ccccc2)N2CCN(C(=O)c3ccnc(-c4nc5cc(C(F)(F)F)ccc5o4)c3)CC2)o1 (centres unmarked) [Example 101] | 631 nM | 794 nM | 39800 nM | 2000 nM | 1000 nM | > 50100 nM | –
Cc1nnc(C(c2ccccc2)N2CCN(C(=O)[C@H]3CCCN(c4nc5cc(C(F)(F)F)ccc5o4)C3)CC2)o1 (some centres unmarked) [Example 110] | 398 nM | 794 nM | 50100 nM | 1260 nM | 1260 nM | > 50100 nM | –
